This experiment addresses hOGG1 (Homo sapiens, UniProt O15527). As to the kind of experiment: Biochemical fluorescence assay to measure enzymatic activity of hOGG1 (OGG1/APEX IC50). The following applies: 1 nM OGG1+2 nM APEX+6 nM dsDNA (8-oxo-dG substrate); pH 7.5; RT 40 min; read-out: OGG1/APEX IC50. The arrangement: Protein His-hOGG1 (12-323) was prepared; His (N); host or cells: E. coli. As to the method:
Biological Example 1: Biochemical Assay to Measure Enzymatic Activity of hOGG1 (OGG1/APEX IC50)
The reported fluorescence-based assay (Donley et al ACS Chem Biol 2015; 10 (10), 2334-2343) was modified to include hAPE1/APEX1 protein. The oligonucleotide substrate with 8-oxo-dG lesion at X was prepared (LGC Biosearch, Petaluma, CA):
Protein His-hOGG1 (12-323) was prepared by Chempartner Corporation via E. coliexpression and purification by Ni-NTA and S200 column to afford 95% purity by SDS-PAGE and SEC-HPLC analysis and hAPE1/APEX1 was purchased (SinoBiological). The assay was run in 384-well plates following the general procedure: (1) compound dilution; (2) addition of hOGG1/APEX1 to compound wells; (3) addition of DNA substrate to compound wells; (4) read Ex520/Em600 (TAMRA) fluorescence signal after 40 minutes; (5) calculate % inhibition/compound concentration; (6) calculate dose-response curve and IC50 value.
• (1) 20 mM of compound solution was prepared in DMSO; • (2) Compounds were diluted to 10 mM in DMSO in ECHO Source plate (Labcyte PP-0200), by mixing […] DMSO; • (3) 4× dilution of compounds, for 10 points, by mixing […] DMSO; and • (4) Dispensed 150 nL compounds to assay plate (Corning 3573) in column 3-22. Dispensed 150 nL DMSO to Min and Max control wells in column 1-2 and column 23-24.
• (1) Assay buffer was prepared (20 mM Tris pH 7.5, 100 mM KCl, 0.1% BSA, 0.01% Tween). • (2) […] buffer was added to Min control wells (Column 1-2). • (3) Enzyme was diluted to 2× with buffer (2 nM OGG1+4 nM APEX1). Dispensed […] (except Min control wells). Shake at 500 rpm at RT for 20 min. • (4) DNA substrate diluted to 2× with buffer (12 nM). Dispensed […]. Final concentration: 1 nM OGG1+2 nM APEX+6 nM dsDNA. Shake at RT for 40 min. • (5) Ex520/Em600 (TAMRA) was read.
• (1) Calculated respective mean of Max and Min control wells. • (2) Converted data to percentage inhibition.
Inhibition (%)=(Max mean−value)/(Max mean−Min mean)×100% • (3) Calculated sigmoidal curve (3-parameter) and IC50 (using GraphPad Prism software).
hOGG1, sequence (O15527 12-323): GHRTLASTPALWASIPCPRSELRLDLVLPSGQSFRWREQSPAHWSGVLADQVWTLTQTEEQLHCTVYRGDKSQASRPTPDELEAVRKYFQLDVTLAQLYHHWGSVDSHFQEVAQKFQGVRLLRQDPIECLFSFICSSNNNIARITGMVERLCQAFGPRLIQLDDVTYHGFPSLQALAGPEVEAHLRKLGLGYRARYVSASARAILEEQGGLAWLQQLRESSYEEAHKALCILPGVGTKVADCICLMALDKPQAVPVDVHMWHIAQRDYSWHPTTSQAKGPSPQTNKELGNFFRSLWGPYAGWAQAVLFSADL
Take `COc1cc(NC(=O)[C@]2(C)CC[C@H](N3Cc4c(C)cccc4NC3=O)CC2)ccc1C` (single isomer, unassigned) [Example 101, (1s,4s)-N-(3-methoxy-4-methylphenyl)-1-methyl-4-(5-methyl-2-oxo-1,2-dihydroquinazolin-3(4H)-yl)cyclohexanecarboxamide]: the IC50 was < 0.1 µM. Next, `COc1cc(NC(=O)[C@]2(C)CC[C@@H](N3Cc4c(C)cccc4NC3=O)CC2)ccc1C` (single isomer, unassigned) [Example 102, (1r,4r)-N-(3-methoxy-4-methylphenyl)-1-methyl-4-(5-methyl-2-oxo-1,2-dihydroquinazolin-3(4H)-yl)cyclohexanecarboxamide]: 1 to 10 µM. With `COc1ccc(NC(=O)[C@]2(C)CC[C@@H](N3Cc4c(C)cccc4NC3=O)CC2)cc1Cl` (single isomer, unassigned) [Example 104, (1r,4r)-N-(3-chloro-4-methoxyphenyl)-1-methyl-4-(5-methyl-2-oxo-1,2-dihydroquinazolin-3(4H)-yl)cyclohexanecarboxamide], the IC50 lay in the range of 1 to 10 µM. `COc1ccc(NC(=O)[C@]2(C)CC[C@H](N3Cc4c(C)cccc4NC3=O)CC2)cc1C` (single isomer, unassigned) [Example 105, (1s,4s)-N-(4-methoxy-3-methylphenyl)-1-methyl-4-(5-methyl-2-oxo-1,2-dihydroquinazolin-3(4H)-yl)cyclohexanecarboxamide]: the IC50 was < 0.1 µM.

`COc1ccc(NC(=O)[C@]2(C)CC[C@@H](N3Cc4c(C)cccc4NC3=O)CC2)cc1C` (single isomer, unassigned) [Example 106, (1r,4r)-N-(4-methoxy-3-methylphenyl)-1-methyl-4-(5-methyl-2-oxo-1,2-dihydroquinazolin-3(4H)-yl)cyclohexanecarboxamide]: the IC50 fell in the range of 1 to 10 µM. Take `COc1ccc(NC(=O)[C@]2(C)CC[C@H](N3Cc4c(C)cccc4NC3=O)CC2)cc1C#N` (single isomer, unassigned) [Example 107, (1s,4s)-N-(3-cyano-4-methoxyphenyl)-1-methyl-4-(5-methyl-2-oxo-1,2-dihydroquinazolin-3(4H)-yl)cyclohexanecarboxamide]: the IC50 was < 0.1 µM.

Turning to `COc1ccc(NC(=O)[C@]2(C)CC[C@@H](N3Cc4c(C)cccc4NC3=O)CC2)cc1C#N` (single isomer, unassigned) [Example 108, (1r,4r)-N-(3-cyano-4-methoxyphenyl)-1-methyl-4-(5-methyl-2-oxo-1,2-dihydroquinazolin-3(4H)-yl)cyclohexanecarboxamide], the IC50 is > 10 µM. Next, `COc1cc(NC(=O)[C@H]2CC[C@H](n3[nH]c4c(Br)cccc4c3=O)CC2)ccc1C` (single isomer, unassigned) [Example 159, (1r,4r)-4-(7-Bromo-3-oxo-1H-indazol-2(3H)-yl)-N-(3-methoxy-4-methylphenyl)cyclohexanecarboxamide]: > 10 µM. In the case of `COc1cc(NC(=O)[C@H]2CC[C@@H](n3[nH]c4c(Br)cccc4c3=O)CC2)ccc1C` (single isomer, unassigned) [Example 160, (1s,4s)-4-(7-Bromo-3-oxo-1H-indazol-2(3H)-yl)-N-(3-methoxy-4-methylphenyl)cyclohexanecarboxamide], the IC50 was in the range of 0.1 to 1 µM. Next, `COc1cc(NC(=O)C2C[C@@H]3[C@H](C2)[C@H]3N2Cc3c(Br)cccc3C2=O)ccc1C` (single isomer, unassigned) [Example 247]: > 10 µM. With `COc1cc(NC(=O)[C@@H]2[C@@H]3C[C@H](N4Cc5c(Br)cccc5C4=O)C[C@@H]32)ccc1C` (single isomer, unassigned) [Example 267] the figure was > 10 µM; with `COc1cc(NC(=O)[C@H]2[C@@H]3C[C@H](N4Cc5c(Br)cccc5C4=O)C[C@@H]32)ccc1C` (single isomer, unassigned) [Example 268], 0.1 to 1 µM; with `COc1cc(NC(=O)[C@@H]2[C@@H]3C[C@@H](N4Cc5c(Br)cccc5C4=O)C[C@@H]32)ccc1C` (single isomer, unassigned) [Example 269], 1 to 10 µM. As for `COc1cc(NC(=O)[C@H]2[C@@H]3C[C@@H](N4Cc5c(Br)cccc5C4=O)C[C@@H]32)ccc1C` (single isomer, unassigned) [Example 270], the IC50 is > 10 µM. On to `COc1cc(NC(=O)[C@H]2CC[C@@H](N3Cc4c(C)cc(CN5CC[C@H](O)C5)cc4NC3=O)CC2)ccc1C` (stereo in doubt) [Example 98, (1R,4s)-4-(7-(((S)-3-hydroxypyrrolidin-1-yl)methyl)-5-methyl-2-oxo-1,2-dihydroquinazolin-3(4H)-yl)-N-(3-methoxy-4-methylphenyl)cyclohexanecarboxamide], for which the IC50 is < 0.1 µM. Next, `COCc1ccc(C)c2c1NC(=O)N([C@H]1CC[C@@H](C(=O)Nc3ccc(C)c(OC)c3)CC1)C2` [Example 1, (1s,4s)-N-(3-Methoxy-4-methylphenyl)-4-(8-(methoxymethyl)-5-methyl-2-oxo-1,2-dihydroquinazolin-3(4H)-yl)cyclohexanecarboxamide]: 1 to 10 µM; `COc1cc(NC(=O)[C@H]2CC[C@@H](N3Cc4c(C)cnc(CNS(C)(=O)=O)c4NC3=O)CC2)ccc1C` [Example 18, (1s,4s)-N-(3-Methoxy-4-methylphenyl)-4-(5-methyl-8-(methylsulfonamidomethyl)-2-oxo-1,2-dihydropyrido[3,4-d]pyrimidin-3(4H)-yl)cyclohexanecarboxamideoxamide]: < 0.1 µM. With `COc1cc(NC(=O)[C@H]2CC[C@@H](N3Cc4c(C)cnc(CN)c4NC3=O)CC2)ccc1C` [Example 20, (1s,4s)-4-(8-(Aminomethyl)-5-methyl-2-oxo-1,2-dihydropyrido[3,4-d]pyrimidin-3(4H)-yl)-N-(3-methoxy-4-methylphenyl)cyclohexanecarboxamide], the IC50 was < 0.1 µM.

For the compound `COc1cc(NC(=O)[C@H]2CC[C@@H](N3Cc4c(C)ccc(OCCN(C)C)c4NC3=O)CC2)ccc1C` [Example 21, (1s,4s)-4-(8-(2-(Dimethylamino)ethoxy)-5-methyl-2-oxo-1,2-dihydroquinazolin-3(4H)-yl)-N-(3-methoxy-4-methylphenyl)cyclohexanecarboxamide], the IC50 was < 0.1 µM. `COc1cc(NC(=O)[C@H]2CC[C@@H](N3Cc4c(C)cnc(C#N)c4NC3=O)CC2)ccc1C` [Example 22, (1s,4s)-4-(8-Cyano-5-methyl-2-oxo-1,2-dihydropyrido[3,4-d]pyrimidin-3(4H)-yl)-N-(3-methoxy-4-methylphenyl)cyclohexanecarboxamide]: the IC50 was < 0.1 µM.

As to `COc1cc(NC(=O)[C@H]2CC[C@@H](N3Cc4c(C)ccc(OCC5(C)COC5)c4NC3=O)CC2)ccc1C` [Example 23, (1s,4s)-N-(3-Methoxy-4-methylphenyl)-4-(5-methyl-8-((3-methyloxetan-3-yl)methoxy)-2-oxo-1,2-dihydroquinazolin-3(4H)-yl)cyclohexanecarboxamide], the IC50 was in the range of 0.1 to 1 µM. As for `COc1cc(NC(=O)[C@H]2CC[C@@H](N3Cc4c(C)ccc(CNS(C)(=O)=O)c4NC3=O)CC2)ccc1C` [Example 24, (1s,4s)-N-(3-Methoxy-4-methylphenyl)-4-(5-methyl-8-(methylsulfonamidomethyl)-2-oxo-1,2-dihydroquinazolin-3(4H)-yl)cyclohexanecarboxamide], the IC50 is < 0.1 µM.

For the origin of these results see US20260317356A1, “SMALL MOLECULE MODULATORS OF OGG1” (AZKARRA THERAPEUTICS, INC., priority 2023, published 2026).
